Measurements published in publication PMC6537702, “Design, synthesis, molecular modelling, and biological evaluation of novel substituted pyrimidine derivatives as potential anticancer agents for hepatocellular carcinoma” (Journal of Enzyme Inhibition and Medicinal Chemistry, 2019).
In brackets after ≈: the same amount, converted by molar mass. Like-named read-outs stand apart in the source and are kept apart here.

What was measured:
HepG2 cell line = assay: Resazurin cell growth inhibition assay, HepG2; type: cell-based, human; conditions: Homo sapiens
Description: (§1) All compounds 2a-e, 3a-d, and PPAD’s 4a-t were subjected to a screening system for evaluation of their anticancer activity against cell line of human cancer, namely liver (HepG2 and Huh-7) cancer and normal fibroblast cells obtained from the German Cancer Research Center (DKFZ), following the Resazurin Cell Growth Inhibition Assay[45] in comparison to the standard treatment using DOX (see Supplementary).
(§2) Cell culture and treatment
(§3) All reagents were handled in a sterile fume hood. DMEM medium, and fetal bovine serum (FBS) were purchased from Gibco;phosphate-buffered saline pH 7.4 (PBS) and trypsin-EDTA were obtained from Sigmae Aldrich. Alamar Blue or Resazurin (Promega,Mannheim, Germany) reduction assay was used to assess the cytotoxicity of the studied samples. The growth medium (DMEMmedium with 10% FBS, 10 0 U/mL penicillin, and 10 0 mg/L streptomycin), and alamar blue were stored at 48 C, while trypsineEDTA and FBS were stored frozen at 208C and thawed before use; PBS was stored at room temperature. The Hep-G2, Huh-7 and normal fibroblast cells were obtained from the German Cancer Research Center (DKFZ).Cells were cultured in 50 cm2 culture flask s (Corning) using DMEM medium supplemented with 10% FBS, penicillin (10 0 IU/mL), and streptomycin ([…]). The culture was maintained at 37 C atmosphere of 5% CO2 and 95% relative humidity. The cells were transferred to a new fl ask every 2 days and treated with trypsineEDTA to detach them from the flask . Cells were counted under a microscope using a hemacytometer (Hausser Scientific).Cell solutions were diluted with growth medium to a concentration of 1 *10^5 cells/mL and transferred to a 96-well plate, and treated with gradient concentrations of test compounds.
(§4) Resazurin cell growth inhibition assay
(§5) Alamar Blue or Resazurin (Promega, Mannheim, Germany) reduction assay was used to assess the cytotoxicity of the studied samples. The assay tests cellular viability and mitochondrial function. Briefly y, adherent cells were grown in tissue culture flask s, and then harvested by treating the fl asks with 0.025% trypsin and0.25 mM EDTA for 5 min. Once detached, cells were washed, counted and an aliquot (5 * 103cells) was placed in each well of a96-well cell culture plate in a total volume of […]. Cells were allowed to attach overnight and then treated with samples. The final concentration of samples ranged from 0 to 10 0 mM. After 4 8 h,[…] Resazurin 0.01% w/v solution was added to each well and the plates were incubated at 37C for 1 -2 h. Fluorescence was measured on an automated 96-well Infinite M2000 ProTM plate reader (Tecan, Crailsheim, Germany) using an excit ation wave-length of 54 4 nm and an emission wavelength of 590 nm. Doxorubicin was used as positive control. Each assay was done at least three times, with two replicates each. The viability was compared based on a comparison with untreated cells. IC50(on cancer cells) were the concentration of sample required to inhibit 50% of the cell proliferation and were calculated from a calibration curve by a linear regression using Microsoft Excel

Huh-7 cell line = assay: Resazurin cell growth inhibition assay, Huh-7; type: cell-based, human; conditions: Homo sapiens
Description: as §1, §2, §3, §4, §5

[1] = Resazurin cell growth inhibition assay, normal fibroblast cells; type: cell-based; conditions: M ± SEM of three independent experiments, read-out: Cytotoxic activity IC50, Fibroblast
Description: as §1, §2, §3, §4, §5

[2] = tested on: caspase 3/7 activity in HepG2 cells; assay: Caspase-Glo 3/7 assay, HepG2; type: cell-based, human; conditions: 24 h incubation; 2 IC50, IC50, ½ IC50; vs DMSO solvent control; p < .05, n = 3
Description: The influence of our test samples on caspase 3/7 activity in liver cancer cells (HepG2 cells) was detected using Caspase-Glo 3/7 Assay kit (Promega, Madison, WI) as previously described[45] (see Supplementary).
as §2, §3, §4
Alamar Blue or Resazurin (Promega, Mannheim, Germany) reduction assay was used to assess the cytotoxicity of the studied samples. The assay tests cellular viability and mitochondrial function. Briefly y, adherent cells were grown in tissue culture flask s, and then harvested by treating the fl asks with 0.025% trypsin and0.25 mM EDTA for 5 min. Once detached, cells were washed, counted and an aliquot (5 * 103cells) was placed in each well of a96-well cell culture plate in a total volume of […]. Cells were allowed to attach overnight and then treated with samples. The final concentration of samples ranged from 0 to 10 0 mM. […] Fluorescence was measured on an automated 96-well Infinite M2000 ProTM plate reader (Tecan, Crailsheim, Germany) using an excit ation wave-length of 54 4 nm and an emission wavelength of 590 nm. […]
The influence of our test samples on cas pase 3/7 activity in […] was detected using Caspase -Glo 3/7 Assay kit (Promega). […] Luminescence was measured using well Infinite M2000 Pro TM instrument (Tecan).Caspase 3/7 activity was expressed as percentage of the unt reated

[3] = tested on: caspase 3/7 activity in Huh-7 cells; assay: Caspase-Glo 3/7 assay, Huh-7; type: cell-based, human; conditions: 24 h incubation; 2 IC50, IC50, ½ IC50; vs DMSO solvent control; p < .05, n = 3
[4] = HepG2, 48 h, resazurin assay, 48 h, M ± SEM of three independent experiments, read-out: Cytotoxic activity IC50, HepG2 cell line
[5] = HepG2, converted from μg/mL, read-out: IC50 against HepG2 cell line, equivalent in μM
[6] = Huh-7, 48 h, resazurin assay, 48 h, M ± SEM of three independent experiments, read-out: Cytotoxic activity IC50, Huh-7 cell line
[7] = Huh-7, converted from μg/mL, read-out: IC50 against Huh-7 cell line, equivalent in μM

SMILES | IC50 (HepG2 cell line; [4]) | IC50 (HepG2 cell line; [5]) | IC50 (Huh-7 cell line; [6]) | IC50 (Huh-7 cell line; [7]) | IC50 at 48 h [1] | activation of caspase 3/7, HepG2 cell line [2] | activation of caspase 3/7, Huh-7 cell line [3] | melting point
N#Cc1c(-c2ccc(F)cc2)nc(N2N=C(c3c4ccccc4cc4ccccc34)CC2c2ccc(F)cc2)[nH]c1=O (centres unmarked) [Compound 4e, 2-[3-Anthracene-9-yl-5–(4-fluoro-phenyl)-4,5-dihydro-pyrazol-1-yl]-4–(4-fluoro-phenyl)-6-oxo-1,6-dihydro-pyrimidine-5-carbonitrile] | 5.34 ± 0.21 µg/mL | 9.6 µM | 6.13 ± 1.01 µg/mL | 11.1 µM | 24.1 ± 4.63 µg/mL (≈ 43.6 µM) | significant increase | significant increase | 
N#Cc1c(-c2c[nH]c3ccccc23)nc(N2N=C(c3c4ccccc4cc4ccccc34)CC2c2ccc(F)cc2)[nH]c1=O (centres unmarked) [Compound 4i, 2-[3-Anthracene-9-yl-5–(4-fluoro-phenyl)-4,5-dihydro-pyrazol-1-yl]-4-(1H-indol-3-yl)-6-oxo-1,6-dihydro-pyrimidine-5-carbonitrile] | 9.54 ± 1.24 µg/mL |  | 6.47 ± 0.41 µg/mL | 11.2 µM | 31.4 ± 2.07 µg/mL (≈ 54.7 µM) | significant increase | significant increase | 184 to 185 °C
COc1cc(-c2nc(N3N=C(c4c5ccccc5cc5ccccc45)CC3c3ccc(F)cc3)[nH]c(=O)c2C#N)cc(OC)c1OC (centres unmarked) [Compound 4m, 2-[3-Anthracene-9-yl-5–(4-fluoro-phenyl)-4,5-dihydro-pyrazol-1-yl]-6-oxo-4–(3,4,5-trimethoxy-phenyl)-1,6-dihydro-pyrimidine-5-carbonitrile] | 8.12 ± 1.82 µg/mL |  | 7.5 ± 0.98 µg/mL |  | 24.1 ± 4.34 µg/mL (≈ 38.6 µM) | significant increase | significant increase | 148 to 150 °C
COc1cc(-c2nc(N3N=C(c4c5ccccc5cc5ccccc45)CC3c3ccc(N(C)C)cc3)[nH]c(=O)c2C#N)cc(OC)c1OC (centres unmarked) [Compound 4n, 2-[3-Anthracene-9-yl-5–(4-dimethylamino-phenyl)-4,5-dihydro-pyrazol-1-yl]-6-oxo-4–(3,4,5-trimethoxy-phenyl)-1,6-dihydro-pyrimidine-5-carbonitrile] | 9.66 ± 1.31 µg/mL |  | 9.54 ± 2.16 µg/mL |  | 18.6 ± 3.17 µg/mL (≈ 28.5 µM) |  |  | 170 to 172 °C
COc1cc(-c2nc(N3N=C(c4c5ccccc5cc5ccccc45)CC3c3cc(OC)c(OC)c(OC)c3)[nH]c(=O)c2C#N)cc(OC)c1OC (centres unmarked) [Compound 4o, 2-[3-Anthracene-9-yl-5–(3,4,5-trimethoxy-phenyl)-4,5-dihydro-pyrazol-1-yl]-6-oxo-4–(3,4,5-trimethoxy-phenyl)-1,6-dihydro-pyrimidine-5-carbonitrile] | 10.2 ± 1.02 µg/mL |  | 14.5 ± 1.24 µg/mL |  | 28.1 ± 3.31 µg/mL (≈ 40.2 µM) |  |  | 165 to 166 °C
CN(C)c1ccc(-c2nc(N3N=C(c4c5ccccc5cc5ccccc45)CC3c3ccc(F)cc3)[nH]c(=O)c2C#N)cc1 (centres unmarked) [Compound 4q, 2-[3-Anthracene-9-yl-5–(4-fluoro-phenyl)-4,5-dihydro-pyrazol-1-yl]-4–(4-dimethylamino-phenyl)-6-oxo-1,6-dihydro-pyrimidine-5-carbonitrile] | 6.85 ± 0.85 µg/mL | 11.8 µM | 8.66 ± 1.52 µg/mL |  | 34.3 ± 6.42 µg/mL (≈ 59.3 µM) | significant increase | significant increase | 182 to 184 °C
CN(C)c1ccc(-c2nc(N3N=C(c4c5ccccc5cc5ccccc45)CC3c3ccc(N(C)C)cc3)[nH]c(=O)c2C#N)cc1 (centres unmarked) [Compound 4r, 2-[3-Anthracene-9-yl-5–(4-dimethylamino-phenyl)-4,5-dihydro-pyrazol-1-yl]-4–(4-dimethylamino-phenyl)-6-oxo-1,6-dihydro-pyrimidine-5-carbonitrile] | 8.44 ± 1.1 µg/mL |  | 7.61 ± 0.21 µg/mL |  | 25.2 ± 5.24 µg/mL (≈ 41.8 µM) |  |  | 174 to 175 °C
COc1cc(C2CC(c3c4ccccc4cc4ccccc34)=NN2c2nc(-c3ccc(N(C)C)cc3)c(C#N)c(=O)[nH]2)cc(OC)c1OC (centres unmarked) [Compound 4s, 2-[3-Anthracene-9-yl-5–(3,4,5-trimethoxy-phenyl)-4,5-dihydro-pyrazol-1-yl]-4–(4-dimethylamino-phenyl)-6-oxo-1,6-dihydro-pyrimidine-5-carbonitrile] | 8.66 ± 1.44 µg/mL |  | 11.3 ± 0.61 µg/mL |  | 20.3 ± 4.15 µg/mL (≈ 31.2 µM) |  |  | 160 to 162 °C
CN(C)c1ccc(-c2nc(N3N=C(c4c5ccccc5cc5ccccc45)CC3c3c[nH]c4ccccc34)[nH]c(=O)c2C#N)cc1 (centres unmarked) [Compound 4t, 2-[3-Anthracene-9-yl-5-(1H-indol-3-yl)-4,5-dihydro-pyrazol-1-yl]-4–(4-dimethylamino-phenyl)-6-oxo-1,6-dihydro-pyrimidine-5-carbonitrile] | 9.21 ± 1.05 µg/mL |  | 7.42 ± 1.48 µg/mL |  | 23.5 ± 3.82 µg/mL (≈ 39.2 µM) |  |  | 190 to 191 °C
